Assay results taken from ChEMBL document CHEMBL1201862, “PubChem BioAssay data set” (2004).
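Protocol summary: plate cells (96-well), add compound at 5 concentrations, incubate 48 h, interpolate endpoints linearly. The concentration for 50% growth inhibition is given as GI50.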 Calls of active or inactive are those of the source. Cut-off read from the data, not from the text of the source: active = GI50 up to about 1.1 µM and inactive = higher.

Assays:
Test in all cases: DTP human tumour cell line panel, 48 h
[1] = test system: CAKI-1
[2] = test system: HL-60
[3] = test system: HOP-62
[4] = test system: KM12
[5] = test system: M14
[6] = test system: NCI-H23
[7] = test system: NCI-H460
[8] = test system: NCI-H522
[9] = test system: OVCAR-4
[10] = test system: SK-MEL-5
[11] = test system: SNB-19
[12] = test system: SW-620
[13] = test system: TK-10
[14] = test system: UACC-62
[15] = test system: UO-31
[16] = test system: HCC 2998
[17] = test system: HCT-116

Measured: GI50

Cc1cn(Cc2ccccc2CCO)c(=S)[nH]c1=O
inactive: [1] > 100 µM | [2] > 100 µM | [3] > 100 µM | [4] > 100 µM | [5] > 100 µM | [6] > 100 µM | [7] > 100 µM | [8] > 100 µM | [9] > 100 µM | [10] > 100 µM | [11] > 100 µM | [12] > 100 µM | [13] > 100 µM | [14] > 100 µM | [15] > 100 µM

Cc1cc(Cl)ccc1NC(=O)CCCC(=O)C1CCCC1=O (centres undefined)
inactive: [1] > 100 µM | [16] > 100 µM | [17] > 100 µM | [2] > 100 µM | [4] > 100 µM | [5] > 100 µM | [6] > 100 µM | [7] > 100 µM | [8] > 100 µM | [9] > 100 µM | [10] > 100 µM | [11] > 100 µM | [12] > 100 µM | [13] > 100 µM | [14] > 100 µM | [15] > 100 µM

CCOC(=O)N1CCN(C=S)CC1
inactive: [16] > 100 µM | [17] > 100 µM | [2] > 100 µM | [3] > 100 µM | [4] > 100 µM | [5] > 100 µM | [6] > 100 µM | [7] > 100 µM | [8] > 100 µM | [10] > 100 µM | [11] > 100 µM | [12] > 100 µM | [13] > 100 µM | [14] > 100 µM | [15] > 100 µM

C/C(=C1/N=C(c2cc([N+](=O)[O-])ccc2Cl)N(c2cccc(C)c2)C1=O)c1cc2ccccc2oc1=O
inactive: [1] > 100 µM | [16] > 100 µM | [17] 47.4 µM | [2] 28.7 µM | [3] > 100 µM | [4] 64 µM | [5] > 100 µM | [6] 35.2 µM | [7] 47.8 µM | [8] 13.6 µM | [10] 14 µM | [11] 95.5 µM | [12] 29.4 µM | [13] > 100 µM | [14] 21.8 µM | [15] > 100 µM

O=C(/C=C/c1ccccc1Cl)c1ccc(Cl)cc1Cl
inactive: [1] 14.4 µM | [16] 19.1 µM | [17] 8.47 µM | [2] 16.5 µM | [3] 23.2 µM | [4] 11.4 µM | [5] 18.1 µM | [6] 19.2 µM | [7] 17.3 µM | [9] 15.6 µM | [10] 15.3 µM | [11] 15.5 µM | [12] 1.74 µM | [13] 17.7 µM | [14] 14.5 µM | [15] 21.7 µM

CC12Oc3ccc4ccccc4c3C1c1c(ccc3ccccc13)O2 (centres undefined)
inactive: [1] > 100 µM | [17] > 100 µM | [4] > 100 µM | [5] > 100 µM | [6] > 100 µM | [7] > 100 µM | [8] > 100 µM | [9] 35.9 µM | [10] > 100 µM | [11] > 100 µM | [12] > 100 µM | [13] > 100 µM | [14] > 100 µM | [15] > 100 µM

Cc1ccc(/C=N/NS(=O)(=O)c2ccccc2)c(C)c1
inactive: [1] > 100 µM | [16] > 100 µM | [17] > 100 µM | [2] > 100 µM | [3] > 100 µM | [4] > 100 µM | [5] > 100 µM | [6] > 100 µM | [7] > 100 µM | [9] > 100 µM | [10] > 100 µM | [12] > 100 µM | [13] > 100 µM | [14] > 100 µM | [15] > 100 µM

Cc1cc(C)nc(NS(=O)(=O)c2ccc(Nc3c4ccc(Cl)cc4nc4c(C(=O)Nc5ccc(S(=O)(=O)N=C(N)N)cc5)cccc34)cc2)n1
inactive: [16] > 100 µM | [17] 54.3 µM | [3] > 100 µM | [4] > 100 µM | [5] > 100 µM | [6] > 100 µM | [7] > 100 µM | [8] 34.4 µM | [9] > 100 µM | [11] > 100 µM | [13] 98.6 µM | [14] 70.8 µM | [15] > 100 µM

Cc1cc2c(C)nn(Cc3ccccc3)c2c(C(N)=O)c1C
inactive: [16] > 100 µM | [17] > 100 µM | [3] > 100 µM | [4] > 100 µM | [5] > 100 µM | [6] > 100 µM | [7] > 100 µM | [8] 99.1 µM | [9] > 100 µM | [10] > 100 µM | [11] > 100 µM | [12] > 100 µM | [13] > 100 µM | [14] > 100 µM | [15] 67.9 µM

COc1ccc(CC2(Cc3ccc(OC)cc3)CCOC2=O)cc1
inactive: [1] 67 µM | [17] > 100 µM | [2] > 100 µM | [3] 20.8 µM | [4] > 100 µM | [5] > 100 µM | [6] > 100 µM | [7] > 100 µM | [8] 17.7 µM | [9] > 100 µM | [11] > 100 µM | [12] > 100 µM | [13] > 100 µM | [14] > 100 µM | [15] > 100 µM

Cc1nc(-c2nc(C)c(C(=O)/C=C/c3ccc([N+](=O)[O-])cc3)s2)sc1C(=O)/C=C/c1ccc([N+](=O)[O-])cc1
inactive: [1] > 100 µM | [16] > 100 µM | [17] > 100 µM | [2] > 100 µM | [3] > 100 µM | [4] > 100 µM | [5] > 100 µM | [6] > 100 µM | [7] > 100 µM | [10] > 100 µM | [11] > 100 µM | [12] > 100 µM | [13] > 100 µM | [14] > 100 µM | [15] > 100 µM

O=S(=O)(c1ccccc1)C1(C2(S(=O)(=O)c3ccccc3)CCN=N2)CCN=N1 (centres undefined)
inactive: [1] > 100 µM | [16] > 100 µM | [17] > 100 µM | [2] > 100 µM | [4] > 100 µM | [5] > 100 µM | [6] > 100 µM | [7] > 100 µM | [8] > 100 µM | [9] > 100 µM | [11] > 100 µM | [12] > 100 µM | [13] > 100 µM | [15] > 100 µM

CCOC(=O)NC(=O)c1cn(CCN2CCN(c3ncnc4[nH]cnc34)CC2)c(=O)[nH]c1=O
inactive: [16] > 100 µM | [17] > 100 µM | [2] > 100 µM | [3] > 100 µM | [4] > 100 µM | [5] > 100 µM | [6] > 100 µM | [7] > 100 µM | [8] > 100 µM | [10] > 100 µM | [11] > 100 µM | [12] > 100 µM | [13] > 100 µM | [14] > 100 µM | [15] > 100 µM
